The test is described as follows: Study on the cocaine addiction: case report of a patient treated for hirsutism. It is filed as in vivo, human. The note with it: cocaine user; 50 mg 1 cp daily; after 6 months of therapy (treatment lasted approximately 9 months).

Method: In the course of the follow up transaminases and hormones were assayed.

For the molecule `CC(=O)O[C@]1(C(C)=O)CC[C@H]2[C@@H]3C=C(Cl)C4=CC(=O)[C@@H]5C[C@@H]5[C@]4(C)[C@H]3CC[C@@]21C` [cyproterone acetate], the “cocaine use status during follow up” value is on record as “drug free”.

The record behind these values is US20080167282A1, “Use of Inhibitors of Steroid Activity for the Treatment of Substance Related Disorders” (priority 2005, published 2008).
